# Experimental data as given in patent US6239171A, “Tocotrienols and tocotrienol-like compounds and methods for their use” (Lipogenics, Inc., priority 1998, dated 2001).
# What was measured:
# [1] = tested on: chickens; assay: Serum cholesterol, apolipoproteins, triglycerides and glucose in chickens fed supplemented diets; type: in vivo, chicken; details: 4 weeks; for APO A1, percentage of control / APO A1 in serum / APO B in serum / APO B, percentage of control / DL-Cholesterol/Total Cholesterol / DL-Cholesterol/Total Cholesterol, percentage of control / Glucose in serum / Glucose, percentage of control / HDL-Cholesterol in serum / HDL-Cholesterol, percentage of control / HDL-Cholesterol/LDL-Cholesterol / HDL-Cholesterol/LDL-Cholesterol, percentage of control / LDL-Cholesterol in serum / LDL-Cholesterol, percentage of control / Total Cholesterol in serum / Total Cholesterol, percentage of control / Triglycerides in serum / Triglycerides, percentage of control: control diet + 50 ppm
# Description: All assays conducted on chicken or swine serum were done following the protocols described in A. A. Qureshi et al., "Lowering Of Serum Cholesterol In Hypercholesterolemic Humans By Tocotrienols" (Palmvitee), Am. J. Clin. Nutr., 53, pp. 1021S-26S (1991). All enzymatic assays were done following the protocols described in A. A. Qureshi et al., "Effects of Cereals and Culture Filtrate of Trichoderma viride on Lipid Metabolism of Swine", Lipids, 17, pp. 924 (1982). Plasma insulin, glucagon and TNF levels were measured using radioinnumoassay kits from Ventrex Laboratories, Inc. (Portland, Me.), ICN Biomedicals, Inc. (Costa Mesa, Calif.) and Genzyme Corp. (Cambridge, Mass.), respectively. […]
# Each group of 6 chickens (6-week old female while leghorn) was administered the chick mash diet described in Example 5, supplemented with one of three different amounts of waxes (sterols), 50 ppm of TRF (prepared as in Example 2) or 5% equivalent of the methanol insoluble fraction Louisiana rice bran oil. […] The birds were fasted for a period of 14 hours prior to sacrifice (at 0800 hours). […]
# [2] = tested on: chickens; assay: Antibody titers to sheep red blood cells in chickens; type: in vivo, chicken; details: 4 weeks; for IgG antibody titers in serum / IgM antibody titers in serum / Total Ab titers in serum: control diet + 50 ppm, sheep red blood cells i.p.
# Description: The model for this study was 6-week old female white leghorn chickens. Each group of 12 chickens was fed an unsupplemented chicken diet or a control diet supplemented with 50 ppm of a tocotrienol or 100 ppm of a commercially available hypercholesterolemic agent (Geraniol or Lovastatin). […] The chickens were fed over a period of 4 weeks, then the blood was drawn. The antibody response was determined by injecting the chickens i.p. with 0.5 ml of a 5% suspension of sheep red blood cells (RBCs) in PBS (v/v) which were previously washed three times. […] Relative IgG levels were determined by using 2-mercaptoethanol preincubation for 30 min. The relative IgM levels were calculated by subtracting the IgG antibody levels from total antibody levels. All antibody levels are expressed as the log base 2 of the highest titer that was needed to hemagglutinate an equal volume of 0.5% RBC suspension.
# [3] = tested on: chickens; assay: Plasma thromboxane B2 and platelet factor 4 in chickens fed supplemented diets; type: in vivo, chicken; details: control diet + 50 ppm, 4 weeks
# Description: We next measured the effects of TRF and its components on serum levels of apolipoprotein (a)1, apolipoprotein B, triglycerides and glucose and the plasma levels of thromboxane B2 and platelet factor 4.
# [4] = target: T1, HMG-CoA reductase (Sus scrofa, UniProt Q1W675); assay: Hepatic HMG-CoA reductase activity in hypercholesterolemic swine; type: in vivo; details: control diet + 50 ppm
# T1 construct: The hepatic enzymatic activity of the HMG-CoA reductase decreased approximately 30%; from tissue; host or cells: pig liver, microsomes
# T1 sequence (Q1W675 1-885): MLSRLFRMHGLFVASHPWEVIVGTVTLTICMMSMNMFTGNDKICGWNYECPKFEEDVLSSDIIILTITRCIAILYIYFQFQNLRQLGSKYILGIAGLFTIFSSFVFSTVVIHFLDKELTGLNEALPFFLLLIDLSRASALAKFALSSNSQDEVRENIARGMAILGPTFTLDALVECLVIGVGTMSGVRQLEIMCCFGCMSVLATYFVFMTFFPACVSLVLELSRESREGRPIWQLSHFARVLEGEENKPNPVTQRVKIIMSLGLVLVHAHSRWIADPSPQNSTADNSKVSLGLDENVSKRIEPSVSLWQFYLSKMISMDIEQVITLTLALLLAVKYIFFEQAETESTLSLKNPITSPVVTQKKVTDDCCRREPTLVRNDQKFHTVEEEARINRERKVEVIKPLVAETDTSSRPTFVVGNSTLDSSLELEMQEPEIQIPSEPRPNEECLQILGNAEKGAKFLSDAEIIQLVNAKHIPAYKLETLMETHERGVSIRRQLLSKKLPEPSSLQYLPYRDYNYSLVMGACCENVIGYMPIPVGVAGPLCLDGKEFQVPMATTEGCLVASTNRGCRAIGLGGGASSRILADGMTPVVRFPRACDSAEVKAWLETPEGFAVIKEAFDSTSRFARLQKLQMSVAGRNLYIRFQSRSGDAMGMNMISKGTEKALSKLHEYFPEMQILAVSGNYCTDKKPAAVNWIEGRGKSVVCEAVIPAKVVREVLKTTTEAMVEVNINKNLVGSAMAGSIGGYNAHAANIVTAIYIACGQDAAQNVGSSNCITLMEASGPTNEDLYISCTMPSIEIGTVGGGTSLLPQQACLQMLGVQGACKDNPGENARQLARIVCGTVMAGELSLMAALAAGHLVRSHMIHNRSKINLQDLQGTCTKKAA
# Description: All assays conducted on chicken or swine serum were done following the protocols described in A. A. Qureshi et al., "Lowering Of Serum Cholesterol In Hypercholesterolemic Humans By Tocotrienols" (Palmvitee), Am. J. Clin. Nutr., 53, pp. 1021S-26S (1991). All enzymatic assays were done following the protocols described in A. A. Qureshi et al., "Effects of Cereals and Culture Filtrate of Trichoderma viride on Lipid Metabolism of Swine", Lipids, 17, pp. 924 (1982). Plasma insulin, glucagon and TNF levels were measured using radioinnumoassay kits from Ventrex Laboratories, Inc. (Portland, Me.), ICN Biomedicals, Inc. (Costa Mesa, Calif.) and Genzyme Corp. (Cambridge, Mass.), respectively.
# We next measured the effects of various tocotrienols from rice bran on HMG-CoA reductase and cholesterol 7α-hydroxylase in hypercholesterolemic swine. Since pigs are very similar to humans in their cholesterol metabolism, they provide a useful model from which to study hypercholesterolemia and related diseases. […] The serum cholesterol concentration in these swine is typically above 300-500 mg/dl, as compared to 120-160 mg/dl in normal adult swine. As a result, the pigs develop complicated atherosclerotic plaques that closely resemble advanced atherosclerotic lesions found in humans.
# Each group of three 5-month old swine was administered either a control diet or a control diet supplemented with 50 ppm of TRF or 50 ppm of an individual tocotrienol. The samples were prepared as described in Example 11. After a 12 hour fast, serum and plasma samples were taken a 0 hrs, 21 days and 42 days from the start of the feeding period. After taking serum and plasma samples from the pigs at the end of the 42 day period, all of the swine were fasted for a total of 40 hours, followed by a 48 hour refeeding period. One swine from each group was sacrificed at that time and the liver, intestine, lung, heart, loin muscle, adipose tissue and ham muscle were removed.
# [5] = tested on: cholesterol 7α-hydroxylase; assay: Hepatic cholesterol 7α-hydroxylase activity in chickens fed supplemented diets; type: in vivo, chicken; details: control diet + 50 ppm, 4 weeks
# Description: This example measured the effects of the TRF and its components on the hepatic enzymatic activity of HMG-CoA reductase and cholesterol 7α-hydroxylase. […] The amount of feed consumed ranged from 11.19-11.60 g per chicken and the feeding period was 4 weeks. The birds were fasted for a period of 36 hours and refed for 48 hours prior to sacrifice (at 0800 hours).
SMILES,increase in the HDL-/LDL-cholesterol ratio ([1]; 50 ppm in diet) [%],rank as cholesterol inhibitor among compounds tested (in words) ([1]; 50 ppm in diet),"APO A1, percentage of control [1] [%]",APO A1 in serum [1] [mg/100 ml],APO B in serum [1] [mg/100 ml],"APO B, percentage of control [1] [%]",DL-Cholesterol/Total Cholesterol [1],"DL-Cholesterol/Total Cholesterol, percentage of control [1] [%]",Glucose in serum [1] [mg/100 ml],"Glucose, percentage of control [1] [%]",HDL-Cholesterol in serum [1] [mg/dL],"HDL-Cholesterol, percentage of control [1] [%]",HDL-Cholesterol/LDL-Cholesterol [1],"HDL-Cholesterol/LDL-Cholesterol, percentage of control [1] [%]",LDL-Cholesterol in serum [1] [mg/dL],"LDL-Cholesterol, percentage of control [1] [%]",Total Cholesterol in serum [1] [mg/dL],"Total Cholesterol, percentage of control [1] [%]",Triglycerides in serum [1] [mg/100 ml],"Triglycerides, percentage of control [1] [%]",other results
"CC(C)=CCC/C(C)=C/CC/C(C)=C/CCC1(C)CCc2cc(O)ccc2O1 (stereo not shown) [P21, 3,4-dihydro-2-methyl-2-(4,8,12-trimethyltrideca-3' (E),7'(E),11'-trienyl)-2H-1-benzopyran-6-ol]",> 100,most potent cholesterol inhibitors,98.79,138.4,25.40,76.74,0.74,126.50,198.80,88.63,68.88 ± 1.52,82.33,3.11,204.60,22.16 ± 0.57,40.25,92.91 ± 1.27,65.08,56.22,75.94,"IgG antibody titers in serum [2]: 1.50 ± 1.18 Log 2; IgM antibody titers in serum [2]: 7.17 Log 2; Total Ab titers in serum [2]: 8.67 ± 1.92 Log 2; Platelet Factor 4 [3]: 7.76 ng/mL; Platelet Factor 4, percentage of control [3]: 59.28%; Thromboxane B2 [3]: 16.74 pg/mL; Thromboxane B2, percentage of control [3]: 64.78%; HMG-CoA REDUCTASE ([4]; 21 days): 304.23 pg/min/mg of microsomes; HMG-CoA REDUCTASE, percentage of 0-time value ([4]; 21 days): 89.38%; HMG-CoA REDUCTASE ([4]; 42 days): 275.75 pg/min/mg of microsomes; HMG-CoA REDUCTASE, Percentage of Control Activity ([4]; 42 days): 73.59%; HMG-CoA REDUCTASE, percentage of 0-time value ([4]; 42 days): 81.02%; Cholesterol 7α-Hydroxylase, percentage of control [5]: 112.43%; Cholesterol 7α-hydroxylase [5]: 11.49 nmol/min/mg"
"CC(C)=CCC/C(C)=C/CC/C(C)=C/CCC1CCc2cc(O)ccc2O1 (stereo not shown) [P25, 3,4-dihydro-2-(4,8,12-trimethyltrideca-3'(E),7'(E),11'-trienyl)-2H-1-benzopyran-6-ol]",> 100,most potent cholesterol inhibitors,98.78,138.70,25.20,76.13,0.73,125.30,196.10,87.43,70.12 ± 1.25,53.82,3.05,200.60,23.00 ± 1.27,41.77,95.51 ± 1.11,66.90,54.65,73.82,"reduction of serum cholesterol ([1]; 50 ppm in diet): ~33%; total antibody titer and IgM titer compared to the control (in words) ([2]; 50 ppm in diet): increased; IgG antibody titers in serum [2]: 2.43 ± 1.40 Log 2; IgM antibody titers in serum [2]: 8.92 Log 2; Total Ab titers in serum [2]: 10.30 ± 1.16 Log 2; Platelet Factor 4 [3]: 7.27 ng/mL; Platelet Factor 4, percentage of control [3]: 55.54%; Thromboxane B2 [3]: 16.42 pg/mL; Thromboxane B2, percentage of control [3]: 63.54%; HMG-CoA REDUCTASE ([4]; 21 days): 307.27 pg/min/mg of microsomes; HMG-CoA REDUCTASE, percentage of 0-time value ([4]; 21 days): 87.58%; HMG-CoA REDUCTASE ([4]; 42 days): 269.43 pg/min/mg of microsomes; HMG-CoA REDUCTASE, Percentage of Control Activity ([4]; 42 days): 69.75%; HMG-CoA REDUCTASE, percentage of 0-time value ([4]; 42 days): 76.79%; Cholesterol 7α-Hydroxylase, percentage of control [5]: 111.45%; Cholesterol 7α-hydroxylase [5]: 11.39 nmol/min/mg"
